According to patent US10821115B2, “Compounds that inhibit Mcl-1 protein” (priority 2017, dated 2020):

Columns and labels:
[1] = target: recombinant human Mcl-1 (residues 171-327) / Bim interaction (Homo sapiens (Human), UniProt Q07820); experiment: biochemical; format: binding; settings: 0.1 nM Mcl-1(171-327), 0.05 nM biotin-Bim (51-76); read-out: Mcl-1 HTRF IC50
[2] = tested on: human multiple myeloma cell line, OPM-2; experiment: Cell viability assay (OPM-2 10 FBS), CellTiter-Glo; format: cell-based; settings: Homo sapiens, OPM-2, 16 h, read-out: OPM-2 10% FBS IC50 IP, OPM-2 cells, 10% FBS, 16 h incubation
Outline: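 IC50 values come from 4-parameter logistic fits of luminescence signals reflecting cell viability. Treatment lasted 16 h at 37 °C in complete medium with 10% FBS, starting from 3000 cells/well.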

Chain of recombinant human Mcl-1 (residues 171-327) / Bim interaction (Q07820 171-327): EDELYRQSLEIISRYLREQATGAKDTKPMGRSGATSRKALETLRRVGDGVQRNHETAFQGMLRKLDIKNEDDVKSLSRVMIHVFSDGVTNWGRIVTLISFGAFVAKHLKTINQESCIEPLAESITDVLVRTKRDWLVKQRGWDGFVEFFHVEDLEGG

| SMILES | IC50 [1] [nM] | IC50 [2] [nM] |
| --- | --- | --- |
| CO[C@]1(CN2CCN(C)CC2)/C=C/[C@H](C)[C@H](C)CS(=O)(=O)NC(=O)c2ccc3c(c2)N(C[C@@H]2CC[C@H]21)C[C@@]1(CCCc2cc(Cl)ccc21)CO3 [Example 160, (1S,3′R,6′R,7′R,8′E,10′S,11′S)-6-chloro-7′-methoxy-10′,11′-dimethyl-7′-((4-methyl-1-piperazinyl)methyl)-3,4-dihydro-2H,15′H-spiro[naphthalene-1,22′-[20]oxa[13]thia[1,14]diazatetracyclo [14.7.2.0~3,6~.0~19,24~]pentacosa[8,16,18,24]tetraen]-15′-one 13′,13′-dioxide] | 0.221 | 148 |
| CO[C@]1(CN2CCN3CCCC[C@@H]3C2)/C=C/[C@H](C)[C@H](C)CS(=O)(=O)NC(=O)c2ccc3c(c2)N(C[C@@H]2CC[C@H]21)C[C@@]1(CCCc2cc(Cl)ccc21)CO3 [Example 161, (1S,3′R,6′R,7′R,8′E,10′S,11′S)-6-chloro-7′-methoxy-10′,11′-dimethyl-7′-((9aR)-octahydro-2H-pyrido[1,2-a]pyrazin-2-ylmethyl)-3,4-dihydro-2H,15′H-spiro[naphthalene-1,22′-[20]oxa[13]thia[1,14]diazatetracyclo [14.7.2.0~3,6~.0~19,24~]pentacosa[8,16,18,24]tetraen]-15′-one 13′,13′-dioxide] | 0.094 | 113 |
| CO[C@@]1(CN2CC(C)(N(C)C)C2)/C=C/[C@H](C)[C@H](C)CS(=O)(=O)NC(=O)c2ccc3c(c2)N(C[C@@H]2CC[C@H]21)C[C@@]1(CCCc2cc(Cl)ccc21)CO3 [Example 162, (1S,3′R,6′R,7′S,8′E,10′S,11′S)-6-chloro-7′-((3-(dimethylamino)-3-methyl-1-azetidinyl)methyl)-7′-methoxy-10′,11′-dimethyl-3,4-dihydro-2H,15′H-spiro[naphthalene-1,22′-[20]oxa[13]thia[1,14]diazatetracyclo [14.7.2.0~3,6~.0~19,24~]pentacosa[8,16,18,24]tetraen]-15′-one 13′,13′-dioxide] | 0.072 | 55 |
| CO[C@@]1(CN2CCN3CCCC[C@@H]3C2)/C=C/[C@H](C)[C@H](C)CS(=O)(=O)NC(=O)c2ccc3c(c2)N(C[C@@H]2CC[C@H]21)C[C@@]1(CCCc2cc(Cl)ccc21)CO3 [Example 163, (1S,3′R,6′R,7′S,8′E,10′S,11′S)-6-chloro-7′-methoxy-10′,11′-dimethyl-7′-((9aR)-octahydro-2H-pyrido[1,2-a]pyrazin-2-ylmethyl)-3,4-dihydro-2H,15′H-spiro[naphthalene-1,22′-[20]oxa[13]thia[1,14]diazatetracyclo [14.7.2.0~3,6~.0~19,24~]pentacosa[8,16,18,24]tetraen]-15′-one 13′,13′-dioxide] | 0.179 | 130 |
| C[C@@H]1CS(=O)(=O)NC(=O)c2ccc3c(c2)N(C[C@@H]2CC[C@H]2[C@@](O)(CN2CCN(C4COC4)CC2)/C=C/[C@@H]1C)C[C@@]1(CCCc2cc(Cl)ccc21)CO3 [Example 165, (1S,3′R,6′R,7′R,8′E,10′S,11′S)-6-chloro-7′-hydroxy-10′,11′-dimethyl-7′-((4-(3-oxetanyl)-1-piperazinyl)methyl)-3,4-dihydro-2H,15′H-spiro[naphthalene-1,22′-[20]oxa[13]thia[1,14]diazatetracyclo [14.7.2.0~3,6~.0~19,24~]pentacosa[8,16,18,24]tetraen]-15′-one 13′,13′-dioxide] | 0.19 | 182 |
| CCO[C@]1(CN2CCN(C3COC3)CC2)/C=C/[C@H](C)[C@H](C)CS(=O)(=O)NC(=O)c2ccc3c(c2)N(C[C@@H]2CC[C@H]21)C[C@@]1(CCCc2cc(Cl)ccc21)CO3 [Example 166, (1S,3′R,6′R,7′R,8′E,10′S,11′S)-6-chloro-7′-ethoxy-10′,11′-dimethyl-7′-((4-(3-oxetanyl)-1-piperazinyl)methyl)-3,4-dihydro-2H,15′H-spiro[naphthalene-1,22′-[20]oxa[13]thia[1,14]diazatetracyclo [14.7.2.0~3,6~.0~19,24~]pentacosa[8,16,18,24]tetraen]-15′-one 13′,13′-dioxide] | 0.107 | 50 |
| COC[C@@H]1[C@@H](C)C/C=C/[C@@](CN2CCN(C3COC3)CC2)(OC)[C@@H]2CC[C@H]2CN2C[C@@]3(CCCc4cc(Cl)ccc43)COc3ccc(cc32)C(=O)NS1(=O)=O [Example 167, (1S,3′R,6′R,7′R,8′E,11′S,12′S)-6-chloro-7′-methoxy-12′-(methoxymethyl)-11′-methyl-7′-((4-(3-oxetanyl)-1-piperazinyl)methyl)-3,4-dihydro-2H,15′H-spiro[naphthalene-1,22′-[20]oxa[13]thia[1,14]diazatetracyclo [14.7.2.0~3,6~.0~19,24~]pentacosa[8,16,18,24]tetraen]-15′-one 13′,13′-dioxide] | 0.086 | 52 |
| COC[C@@H]1[C@@H](C)C/C=C/[C@](CN2CCN3CCOC[C@@H]3C2)(OC)[C@@H]2CC[C@H]2CN2C[C@@]3(CCCc4cc(Cl)ccc43)COc3ccc(cc32)C(=O)NS1(=O)=O [Example 168, (1S,3′R,6′R,7′S,8′E,11′S,12′S)-6-chloro-7′-((9aS)-hexahydropyrazino[2,1-c][1,4]oxazin-8(1H)-ylmethyl)-7′-methoxy-12′-(methoxymethyl)-11′-methyl-3,4-dihydro-2H,15′H-spiro[naphthalene-1,22′-[20]oxa[13]thia[1,14]diazatetracyclo [14.7.2.0~3,6~.0~19,24~]pentacosa[8,16,18,24]tetraen]-15′-one 13′,13′-dioxide] | 0.138 | 52 |
| COC[C@@H]1[C@@H](C)C/C=C/[C@](CN2CCN3CCCC[C@@H]3C2)(OC)[C@@H]2CC[C@H]2CN2C[C@@]3(CCCc4cc(Cl)ccc43)COc3ccc(cc32)C(=O)NS1(=O)=O [Example 169] | 0.14 | 74 |
| COC[C@@H]1[C@@H](C)C/C=C/[C@](CN2CCN(C3COC3)CC2)(OC)[C@@H]2CC[C@H]2CN2C[C@@]3(CCCc4cc(Cl)ccc43)COc3ccc(cc32)C(=O)NS1(=O)=O [Example 170, (1S,3′R,6′R,7′S,8′E,11′S,12′S)-6-chloro-7′-methoxy-12′-(methoxymethyl)-11′-methyl-7′-((4-(3-oxetanyl)-1-piperazinyl)methyl)-3,4-dihydro-2H,15′H-spiro[naphthalene-1,22′-[20]oxa[13]thia[1,14]diazatetracyclo [14.7.2.0~3,6~.0~19,24~]pentacosa[8,16,18,24]tetraen]-15′-one 13′,13′-dioxide] | 0.131 | 75 |
| CCO[C@]1(CN2CCN3CCOC[C@@H]3C2)/C=C/C[C@H](C)[C@@H](COC)S(=O)(=O)NC(=O)c2ccc3c(c2)N(C[C@@H]2CC[C@H]21)C[C@@]1(CCCc2cc(Cl)ccc21)CO3 [Example 171, (1S,3′R,6′R,7′R,8′E,11′S,12′S)-6-chloro-7′-ethoxy-7′-((9aS)-hexahydropyrazino[2,1-c][1,4]oxazin-8(1H)-ylmethyl)-12′-(methoxymethyl)-11′-methyl-3,4-dihydro-2H,15′H-spiro[naphthalene-1,22′-[20]oxa[13]thia[1,14]diazatetracyclo [14.7.2.0~3,6~.0~19,24~]pentacosa[8,16,18,24]tetraen]-15′-one 13′,13′-dioxide] | 0.074 | 122 |
| COCC(COC)N1CCN(C[C@]2(OC)/C=C/C[C@H](C)[C@@H](COC)S(=O)(=O)NC(=O)c3ccc4c(c3)N(C[C@@H]3CC[C@H]32)C[C@@]2(CCCc3cc(Cl)ccc32)CO4)CC1 [Example 172, (1S,3′R,6′R,7′S,8′E,11′S,12′S)-6-chloro-7′-methoxy-7′-((4-(2-methoxy-1-(methoxymethyl)ethyl)-1-piperazinyl)methyl)-12′-(methoxymethyl)-11′-methyl-3,4-dihydro-2H,15′H-spiro[naphthalene-1,22′-[20]oxa[13]thia[1,14]diazatetracyclo [14.7.2.0~3,6~.0~19,24~]pentacosa[8,16,18,24]tetraen]-15′-one 13′,13′-dioxide] | 0.137 | 55 |
| COC[C@@H]1[C@@H](C)C/C=C/[C@](CN2CCN(C(C)C)CC2)(OC)[C@@H]2CC[C@H]2CN2C[C@@]3(CCCc4cc(Cl)ccc43)COc3ccc(cc32)C(=O)NS1(=O)=O [Example 173] | 0.173 | 323 |
| COC[C@@H]1[C@@H](C)C/C=C/[C@](CN2CCN(C(C)(C)C)CC2)(OC)[C@@H]2CC[C@H]2CN2C[C@@]3(CCCc4cc(Cl)ccc43)COc3ccc(cc32)C(=O)NS1(=O)=O [Example 174, (1S,3′R,6′R,7′S,8′E,11′S,12′S)-7′-((4-tert-butyl-1-piperazinyl)methyl)-6-chloro-7′-methoxy-12′-(methoxymethyl)-11′-methyl-3,4-dihydro-2H,15′H-spiro[naphthalene-1,22′-[20]oxa[13]thia[1,14]diazatetracyclo [14.7.2.0~3,6~.0~19,24~]pentacosa[8,16,18,24]tetraen]-15′-one 13′,13′-dioxide] | 0.322 | 639 |
| CCO[C@]1(CN2CCN(C3COC3)CC2)/C=C/C[C@H](C)[C@@H](COC)S(=O)(=O)NC(=O)c2ccc3c(c2)N(C[C@@H]2CC[C@H]21)C[C@@]1(CCCc2cc(Cl)ccc21)CO3 [Example 175] | 0.069 | 64 |
| COCC[C@@H]1[C@@H](C)C/C=C/[C@@](CN2CCN(C)CC2)(OC)[C@@H]2CC[C@H]2CN2C[C@@]3(CCCc4cc(Cl)ccc43)COc3ccc(cc32)C(=O)NS1(=O)=O [Example 178, (1S,3′R,6′R,7′R,8′E,11′S,12′R)-6-chloro-7′-methoxy-12′-(2-methoxyethyl)-11′-methyl-7′-((4-methyl-1-piperazinyl)methyl)-3,4-dihydro-2H,15′H-spiro[naphthalene-1,22′-[20]oxa[13]thia[1,14]diazatetracyclo [14.7.2.0~3,6~.0~19,24~]pentacosa[8,16,18,24]tetraen]-15′-one 13′,13′-dioxide] | 0.177 | 71 |
